One molecule from patent US20230301896A1, “COMPOSITION FOR PENETRATING SUGAR BASED DELIVERY SYSTEM” (Evonik Operations GmbH, priority 2015, published 2023) can be followed below.

The test system of one data set is Inner forearm. The experiment in a line: Reduction of irritation potential, 5 D Intravitaltomography (taum). Particulars: 0.3% of retinol occlusively applied onto inner forearm; taum at start point and 48 h after application. It counts as in vivo, human. The text has this:
Reduction of Irritation can be detected by any known analytical test method which can be e.g. 5D IVT, ELISA, Patch Test. HET Cam Test using skin, skin models, cells. This effect depends on the active lipophilic ingredient encapsulated.
Data which measured in accordance with the method as described in “From Morphology To Biochemical State—Intravital Multiphoton Fluorescence Lifetime Imaging Of Inflamed Human Skin”, by Volker Huck et al. published in www.nature.com/scientificreports, 23 Mar. 2016; the disclosure of which is hereby incorporated by reference. Referring now to FIGS. 3 and 4, FIGS. 3 and 4 illustrate the Taum measurement. The delivery system of the invention can achieve Tau values of about 100 ps to about 3000 ps, about 300 ps to about 2500 ps and in some cases about 500 ps to about 1500 ps in the Stratum granulosum and Stratum spinosum.

Data set [1] is described as follows: HPLC determination of retinol (stabilization of active ingredient). The class given is physicochemical. Particulars: UV 323 nm. The procedure: Active ingredients can be detected by any known analytical test method which can be e.g. HPLC, GG, ESR depending on the composition. This effect depends on the active lipophilic ingredient encapsulated.
Test Method used: HPLC Chromatography
Instrumentation: Liquid Chromatograph Agilent 1100 with autosampler, UV-detector
Column: Reprosil C-18-AQ; 5μ, 200*4 mm (Fa. Dr. Maisch) with precolumn: • Column Temp.: 20° C. • Mobile Phase: Acetonitrile/THF/Water (54/38/8 v/v/v) • Flow Rate: 1.0 ml/min • Gradient Program: Isocratic • Detection: UV-Detector; 323 nm • Injection Volume: 5 μl; Autosampler • Retention Time: 1.6 min
Reagents: • Acetonitrile (Roth, gradient grade) • THF (Roth, gradient grade) • 2-Propanol (Roth, gradient grade) • Water, twice-distilled • Retinol 50C (BASF, Cosmetic Quality, approx, 50%)—standard • (If not stated otherwise the reagents are used as purchased without any further purification)

Regarding `CC1=C(/C=C/C(C)=C/C=C/C(C)=C/CO)C(C)(C)CCC1` [retinol, Retinol], in the data set with Inner forearm, the irritation potential result was “significantly higher”. In addition, in data set [1], the “stabilization of Retinol (HPLC)” value is “degrades”.
